{"source": "patent US8680137B2", "about": "“Agents and methods for treating ischemic and other diseases” (Nono Inc., priority 2009, dated 2014)", "key": {"[1]": {"test_system": "formalin-induced pain behaviors", "assay": "Formalin induced inflammatory pain in rats", "format": "in vivo, rat", "conditions": "i.v. administration, formalin 2.5% 50 μL plantar hindpaw"}, "[2]": {"test_system": "AML12 hepatocytes", "assay": "Anoxia (OGD) in AML12 hepatocyte cultures", "format": "cell-based, mouse", "conditions": "2 hour, 4 hour or 6 hour anoxia", "protocol": "The ability of TRPM7 inhibitors to protect other types of cell cultures following exposure to anoxia, including non-neuronal cell cultures, has also been tested. In general, cultures of growing cells are exposed to a 1-6 hour period of anoxia, followed by addition of a TRPM7 at a range of concentrations upon removal from anoxic conditions. […] This implies that TRPM7 inhibitors may be useful both as a treatment for anoxic damage to patients presenting symptoms of a disorder associated with anoxic damage, or as a preventative measure. Such preventative measures can be chronic, such as treatment to protect against damage from heart attacks or strokes, or acute, to be given prior to or during surgical procedures, which may include but not be limited to procedures that involve endovascular invasion and have the possibility of dislodging material that may block blood flow through arteries. […]"}, "[3]": {"target": "TRPM7 (Mus musculus, UniProt Q923J1)", "sequence (Q923J1 whole entry)": "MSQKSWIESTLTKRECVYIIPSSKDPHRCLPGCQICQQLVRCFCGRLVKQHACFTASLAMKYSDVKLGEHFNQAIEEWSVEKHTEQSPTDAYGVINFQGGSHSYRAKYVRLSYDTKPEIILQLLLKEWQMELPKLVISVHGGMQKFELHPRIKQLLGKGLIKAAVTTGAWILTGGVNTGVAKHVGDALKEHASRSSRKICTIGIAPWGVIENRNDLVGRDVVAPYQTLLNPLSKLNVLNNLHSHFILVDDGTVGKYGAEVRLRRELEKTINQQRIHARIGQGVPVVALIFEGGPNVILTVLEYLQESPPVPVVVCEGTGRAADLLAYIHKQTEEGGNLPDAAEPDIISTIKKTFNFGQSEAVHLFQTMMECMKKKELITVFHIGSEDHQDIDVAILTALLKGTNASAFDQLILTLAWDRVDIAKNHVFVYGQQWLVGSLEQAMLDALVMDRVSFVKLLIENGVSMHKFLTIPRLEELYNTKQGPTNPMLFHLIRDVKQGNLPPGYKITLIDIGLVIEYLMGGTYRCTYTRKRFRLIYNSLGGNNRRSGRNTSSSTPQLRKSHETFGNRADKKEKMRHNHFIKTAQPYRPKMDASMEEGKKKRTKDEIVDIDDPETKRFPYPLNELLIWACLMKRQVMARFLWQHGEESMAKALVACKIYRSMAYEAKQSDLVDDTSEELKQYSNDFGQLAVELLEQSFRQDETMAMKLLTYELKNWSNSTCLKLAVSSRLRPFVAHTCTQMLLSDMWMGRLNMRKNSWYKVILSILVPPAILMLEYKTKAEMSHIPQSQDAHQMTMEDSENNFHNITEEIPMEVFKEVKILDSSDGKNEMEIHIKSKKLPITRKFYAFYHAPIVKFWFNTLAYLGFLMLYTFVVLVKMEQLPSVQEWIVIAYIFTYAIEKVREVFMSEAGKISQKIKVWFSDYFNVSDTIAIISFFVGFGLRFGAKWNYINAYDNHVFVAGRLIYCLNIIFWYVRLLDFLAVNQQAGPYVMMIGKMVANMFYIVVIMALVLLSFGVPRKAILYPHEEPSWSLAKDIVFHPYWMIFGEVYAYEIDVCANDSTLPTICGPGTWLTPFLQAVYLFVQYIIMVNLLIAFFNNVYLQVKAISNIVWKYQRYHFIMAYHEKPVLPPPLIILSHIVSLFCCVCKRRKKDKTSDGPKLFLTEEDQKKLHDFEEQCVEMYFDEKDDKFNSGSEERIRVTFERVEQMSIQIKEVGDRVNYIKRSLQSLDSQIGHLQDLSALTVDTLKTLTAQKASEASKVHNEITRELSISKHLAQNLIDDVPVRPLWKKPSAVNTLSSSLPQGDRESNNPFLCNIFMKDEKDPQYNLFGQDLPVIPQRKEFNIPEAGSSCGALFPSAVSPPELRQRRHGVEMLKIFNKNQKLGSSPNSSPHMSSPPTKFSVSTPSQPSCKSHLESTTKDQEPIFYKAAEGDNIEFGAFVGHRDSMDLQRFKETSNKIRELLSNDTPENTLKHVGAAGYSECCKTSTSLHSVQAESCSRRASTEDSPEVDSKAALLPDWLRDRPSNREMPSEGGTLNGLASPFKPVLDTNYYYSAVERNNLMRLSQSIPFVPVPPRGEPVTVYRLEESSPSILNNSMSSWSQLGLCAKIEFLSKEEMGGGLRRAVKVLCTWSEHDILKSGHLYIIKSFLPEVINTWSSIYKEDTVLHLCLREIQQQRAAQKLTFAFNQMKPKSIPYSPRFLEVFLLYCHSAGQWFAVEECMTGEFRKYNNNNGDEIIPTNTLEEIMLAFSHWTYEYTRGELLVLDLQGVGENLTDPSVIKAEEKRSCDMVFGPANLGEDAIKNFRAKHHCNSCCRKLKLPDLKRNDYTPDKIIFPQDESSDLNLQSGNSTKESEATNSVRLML", "assay": "IC50 for TRPM7 (assay not stated)", "parameters": "expressed in transfected cells; host or cells: HEK293 cells, tet-induced TRPM7"}, "[4]": {"target": "T1, TRPM2 (Homo sapiens, UniProt O94759)", "T1 construct": "expressed in transfected cells; host or cells: HEK293", "T1 sequence (O94759 whole entry)": "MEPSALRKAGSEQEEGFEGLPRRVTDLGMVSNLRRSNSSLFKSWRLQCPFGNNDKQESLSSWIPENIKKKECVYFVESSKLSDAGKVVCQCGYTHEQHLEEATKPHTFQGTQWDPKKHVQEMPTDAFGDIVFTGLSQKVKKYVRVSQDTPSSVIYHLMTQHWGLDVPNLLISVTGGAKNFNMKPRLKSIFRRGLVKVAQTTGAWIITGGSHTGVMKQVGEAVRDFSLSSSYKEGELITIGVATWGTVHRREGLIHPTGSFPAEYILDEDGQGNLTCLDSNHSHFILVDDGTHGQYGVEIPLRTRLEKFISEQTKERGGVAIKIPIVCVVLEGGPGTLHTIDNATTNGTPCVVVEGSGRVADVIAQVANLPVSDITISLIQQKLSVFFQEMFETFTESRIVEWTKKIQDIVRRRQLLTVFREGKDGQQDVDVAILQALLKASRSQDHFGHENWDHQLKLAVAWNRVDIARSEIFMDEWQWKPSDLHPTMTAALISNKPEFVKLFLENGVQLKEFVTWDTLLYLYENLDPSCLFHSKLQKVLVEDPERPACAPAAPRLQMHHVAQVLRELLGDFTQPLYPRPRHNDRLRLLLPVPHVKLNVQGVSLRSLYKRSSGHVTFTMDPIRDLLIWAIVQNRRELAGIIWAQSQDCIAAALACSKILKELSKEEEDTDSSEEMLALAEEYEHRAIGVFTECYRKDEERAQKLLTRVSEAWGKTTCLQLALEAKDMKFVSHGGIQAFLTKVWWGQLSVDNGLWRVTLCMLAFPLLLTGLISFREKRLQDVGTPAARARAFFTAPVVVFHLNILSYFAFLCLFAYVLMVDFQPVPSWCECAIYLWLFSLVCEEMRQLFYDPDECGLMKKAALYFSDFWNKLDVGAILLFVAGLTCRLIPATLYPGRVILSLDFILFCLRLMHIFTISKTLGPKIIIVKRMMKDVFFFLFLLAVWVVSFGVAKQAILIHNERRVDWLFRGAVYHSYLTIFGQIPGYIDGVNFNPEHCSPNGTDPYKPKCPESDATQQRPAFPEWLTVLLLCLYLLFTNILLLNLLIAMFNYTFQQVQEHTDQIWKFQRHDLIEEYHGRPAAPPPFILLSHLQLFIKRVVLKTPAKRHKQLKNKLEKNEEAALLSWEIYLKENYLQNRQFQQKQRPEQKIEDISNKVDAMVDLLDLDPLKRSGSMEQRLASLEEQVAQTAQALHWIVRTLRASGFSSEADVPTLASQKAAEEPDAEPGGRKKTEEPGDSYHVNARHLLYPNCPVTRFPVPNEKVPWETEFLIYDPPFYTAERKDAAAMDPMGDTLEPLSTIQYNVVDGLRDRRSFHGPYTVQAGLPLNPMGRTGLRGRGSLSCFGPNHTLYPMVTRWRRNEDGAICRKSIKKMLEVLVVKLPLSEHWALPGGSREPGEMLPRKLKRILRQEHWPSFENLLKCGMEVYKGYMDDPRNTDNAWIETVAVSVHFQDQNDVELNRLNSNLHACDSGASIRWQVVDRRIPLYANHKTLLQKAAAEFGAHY", "assay": "Agonist-induced Ca2+ changes in HEK293 cells transfected with TRPM2", "format": "cell-based", "protocol": "(§1) To examine selectivity of a subset of these TRPM7 inhibitors, experiments were performed to determine whether TRPM7 antagonists cross-react with other ionic channels and receptors. […] From a therapeutic perspective, knowledge of cross-reactivity of candidate drugs could shed light on other ischemic mechanisms and raise awareness of potential side effects. M21 has no effect on voltage-sensitive Na+, and Ca2+ currents in cultured cortical neurons […] TRPM7-expressing HEK293 cells, but inhibits K+ currents by about 20% at membrane potentials of −10 mV. M21 had no effect on agonist-induced Ca2+ changes in HEK293 cells transfected with constructs for TRPM2, TRPM4, TRPM6, TRPV1, TRPC2 and TRPA1. M21 also has no effect on NMDA and AMPA receptor currents in cultured neurons. […] Similar experiments were performed with other TRPM7 inhibitors including M5 and M11."}, "[5]": {"test_system": "LAD coronary artery ligation", "assay": "Mouse model of permanent LAD coronary artery ligation (myocardial infarction)", "format": "in vivo", "conditions": "single intravenous dose within 15 minutes of LAD occlusion"}, "[6]": {"target": "T2, TRPC2 (Mus musculus, UniProt Q9R244)", "T2 construct": "expressed in transfected cells; host or cells: HEK293", "T2 sequence (Q9R244 whole entry, species assumed)": "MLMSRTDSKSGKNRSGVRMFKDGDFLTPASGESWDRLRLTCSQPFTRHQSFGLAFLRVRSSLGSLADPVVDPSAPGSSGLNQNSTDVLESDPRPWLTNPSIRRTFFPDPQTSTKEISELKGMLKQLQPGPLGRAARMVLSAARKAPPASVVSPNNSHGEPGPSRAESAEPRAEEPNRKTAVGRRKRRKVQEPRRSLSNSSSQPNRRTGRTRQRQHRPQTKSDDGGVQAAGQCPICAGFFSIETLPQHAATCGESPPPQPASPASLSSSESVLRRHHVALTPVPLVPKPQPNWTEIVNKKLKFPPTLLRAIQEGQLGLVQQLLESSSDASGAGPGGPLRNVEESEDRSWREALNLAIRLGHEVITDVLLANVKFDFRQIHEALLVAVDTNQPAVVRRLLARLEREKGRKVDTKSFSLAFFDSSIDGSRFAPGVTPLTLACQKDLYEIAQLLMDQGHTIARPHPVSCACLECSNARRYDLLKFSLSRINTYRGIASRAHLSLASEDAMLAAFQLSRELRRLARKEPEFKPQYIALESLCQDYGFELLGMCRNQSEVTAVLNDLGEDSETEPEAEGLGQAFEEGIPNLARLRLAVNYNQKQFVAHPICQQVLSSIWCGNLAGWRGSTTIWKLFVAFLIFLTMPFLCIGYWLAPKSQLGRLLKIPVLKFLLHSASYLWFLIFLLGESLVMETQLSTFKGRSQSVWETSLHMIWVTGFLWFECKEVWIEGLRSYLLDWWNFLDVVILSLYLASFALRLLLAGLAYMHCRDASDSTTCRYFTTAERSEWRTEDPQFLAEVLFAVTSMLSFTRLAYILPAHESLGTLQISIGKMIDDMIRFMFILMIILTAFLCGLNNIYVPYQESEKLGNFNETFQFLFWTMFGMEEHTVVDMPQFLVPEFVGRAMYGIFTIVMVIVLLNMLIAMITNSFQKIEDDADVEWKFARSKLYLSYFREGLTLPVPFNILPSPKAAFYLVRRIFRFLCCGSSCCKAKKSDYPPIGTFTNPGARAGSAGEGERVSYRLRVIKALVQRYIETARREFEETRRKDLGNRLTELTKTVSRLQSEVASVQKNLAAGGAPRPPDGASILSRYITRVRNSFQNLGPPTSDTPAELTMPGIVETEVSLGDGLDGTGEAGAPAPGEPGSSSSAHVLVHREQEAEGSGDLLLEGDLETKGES", "assay": "Agonist-induced Ca2+ changes in HEK293 cells transfected with TRPC2", "format": "cell-based", "protocol": "as §1"}, "[7]": {"test_system": "AMPA receptor", "assay": "AMPA receptor currents in cultured neurons", "format": "cell-based", "protocol": "as §1"}, "[8]": {"test_system": "B16F10 melanoma", "assay": "Murine tumor model of B16F10 melanoma", "format": "in vivo, mouse", "conditions": "intravenous 20 mg/kg once daily", "protocol": "To evaluate the efficacy of TRPM7 inhibitors in vivo, M6 was selected to for a pilot evaluation of its ability to reduce tumor formation in a murine tumor model of B16F10 melanoma and a RXF-393 human renal cell carcinoma xenograft model of tumor proliferation. […] For each tumor model, an appropriate number of cells were injected into the right flank (˜3-5 million cells per animal in 0.1 ml 50% matrigel/50% media). When tumor sizes reached 100-150 mg, animals were randomized into control (vehicle only), positive control or M6. M6 was given by intravenous injection to 20 mg/kg once daily. Tumors were measured and the weights were calculated by standard means."}, "[9]": {"test_system": "A375 melanoma", "assay": "Cancer cell proliferation, A375", "format": "cell-based", "conditions": "Homo sapiens", "protocol": "(§2) To determine the breadth of efficacy in cancers, we examined the efficacy of a range of TRPM7 inhibitors for their ability to inhibit cell proliferation in cancer cell lines. Representative figures are included as examples.\n(§3) Cells (Table 1) were grown to 70% confluency, trypsinized, counted, and seeded in 96-well flat-bottom plates at a final concentration of 2.5×10^3-5.0×10^3 cells/well in growth media containing 5% FBS (Day 0). Other well sizes and cell densities were used successfully as well. Cells were allowed to incubate in growth media for 24 hours to allow for maximum adhesion. Treatment with the test agent began on Day 1 and continued for 72 hours either with or without retreatment. At the 72 hour time point, viable cell numbers are quantified by the CellTiter-Glo® cell viability assay as described above, or using standard MTT, SRB or BrDU assays. Experiments were repeated at least twice with the same concentrations to determine growth inhibitory activity.\n(§4) Data Collection—For the cell proliferation studies, data from each experiment was collected and expressed as % Cell Growth using the following calculation: % Cell Growth=(ftest/fvehicle)×100 Where ftest is the luminescent signal of the tested sample, and fvehicle is the luminescence of the vehicle in which the drug is dissolved (or appropriate measure for the other viability/proliferation measures). Dose response graphs and IC50 values were generated using standard software using the following variable slope equation: […]"}, "[10]": {"test_system": "SW13 adrenal carcinoma cells", "assay": "Cancer cell proliferation, SW13", "format": "cell-based", "conditions": "SW13, FIG. 79", "protocol": "as §2, §3\nas §4, with “measures).” for “measures). Dose response graphs and IC50 values were generated using standard software using the following variable slope equation:”"}, "[11]": {"test_system": "HeLa cervical cancer cells", "assay": "Cancer cell proliferation, HeLa", "format": "cell-based, human", "conditions": "FIG. 79", "protocol": "as §2, §3\nas §4, with “measures).” for “measures). Dose response graphs and IC50 values were generated using standard software using the following variable slope equation:”"}, "[12]": {"test_system": "Y79 retinoblastoma cells", "assay": "Cancer cell proliferation, Y79", "format": "cell-based", "protocol": "as §2, §3, §4"}, "[13]": {"test_system": "H9c2 cardiomyocytes", "assay": "Toxicity on H9c2 cardiomyocytes, PI uptake after 72 hours", "format": "cell-based, rat", "protocol": "To differentiate between an anti-proliferative effect of the TRPM7 inhibitors and cellular toxicity, the compounds were added to various ‘non-cancerous’ cell lines at the same concentrations and the percentage of PI uptake was measured after 72 hours."}}, "note": "Where two headings read alike, the source gives them in different places.", "data": [{"smiles": "Cc1c(Cc2ccc(Cl)c(Cl)c2)c(=O)oc2cc(O)ccc12", "note": "[Compound M21]", "values": [{"measurement": "formalin-induced phase 1 (0-8 min) flinches", "setting": "[1]", "result": "little effect"}, {"measurement": "formalin-induced phase 2 pain (9-60 min) flinches", "setting": "[1]", "result": "significantly reduced"}, {"measurement": "survival after anoxia", "setting": "[2]", "result": "can promote survival"}, {"measurement": "IC50", "setting": "[3]", "result": "1 to 2", "unit": "µM"}, {"measurement": "effect on agonist-induced Ca2+ changes", "setting": "[4]", "result": "no effect"}, {"measurement": "number of cells exhibiting DNA fragmentation (TUNEL)", "setting": "[5]", "result": "significantly reduced the number of cells exhibiting DNA fragmentation"}, {"measurement": "infarct volume (TTC)", "setting": "[5]; 24 h", "result": "significantly reduced infarct volume"}, {"measurement": "effect on agonist-induced Ca2+ changes", "setting": "[6]", "result": "no effect"}, {"measurement": "effect on AMPA receptor currents", "setting": "[7]", "result": "no effect"}]}, {"smiles": "COc1cc2c(cc1OC)C(c1sc3ccccc3c1Cl)=NCC2", "note": "[Compound M6]", "values": [{"measurement": "melanoma tumor growth", "setting": "[8]", "result": "reduces tumor growth"}, {"measurement": "IC50", "setting": "[9]; A-375, 72 h, A375, Exp 1, 72 hours, read-out: IC50", "result": 12.6, "unit": "µM"}, {"measurement": "IC50", "setting": "[9]; A-375, 72 h, A375, Exp 2, 72 hours, read-out: IC50", "result": 14.2, "unit": "µM"}, {"measurement": "IC50", "setting": "[9]; A-375, A375, mean of Exp 1 and Exp 2, read-out: Mean IC50", "result": 13.4, "unit": "µM"}, {"measurement": "proliferation (BrDU incorporation)", "setting": "[10]", "result": "significantly reduce proliferation"}, {"measurement": "proliferation (BrDU incorporation)", "setting": "[11]", "result": "significantly reduce proliferation"}, {"measurement": "IC50", "setting": "[12]; 72 h, Y79, Exp 1, 72 hours, read-out: IC50", "result": 36.3, "unit": "µM"}, {"measurement": "IC50", "setting": "[12]; 72 h, Y79, Exp 2, 72 hours, read-out: IC50", "result": 38.6, "unit": "µM"}, {"measurement": "death of cancer cells by MTT assay", "setting": "[12]; Y79, 1-7.5 μM, 48-72 hours", "result": "resulted in the death of the cancer cells"}, {"measurement": "IC50", "setting": "[12]; Y79, mean of Exp 1 and Exp 2, read-out: Mean IC50", "result": 37.5, "unit": "µM"}]}, {"smiles": "O=C(Nc1ccc(F)cc1)C(Sc1ccc(Cl)cc1)c1ccccc1", "note": "(stereo not drawn) [Compound M11]", "values": [{"measurement": "toxicity (PI uptake)", "setting": "[13]; 5 μM", "result": "No toxicity"}, {"measurement": "toxicity (PI uptake)", "setting": "[13]; 10 μM", "result": "slight toxicity"}]}]}
